According to ChEMBL document CHEMBL3832761, “MMV Pathogen Box Bioactivity Data” (2017):

Key:
Plasmodium falciparum [1] = assay: Antimalarial activity: Asexual Blood Stage Plasmodium falciparum 3D7 IC50 (uM); assay type: functional, organism-based
Plasmodium falciparum [2] = assay: Antimalarial activity: Asexual Blood Stage Plasmodium falciparum Dd2 IC50 (uM); assay type: functional, organism-based
Plasmodium falciparum [3] = assay: Antimalarial activity: Asexual Blood Stage Plasmodium falciparum W2 IC50 (uM); assay type: functional, organism-based
Plasmodium berghei [4] = assay: Antimalarial activity: Liver Stage Plasmodium berghei sporozoite Luciferase assay: inhibition at 10 uM (%); assay type: functional
Plasmodium berghei [5] = assay: Antimalarial activity: Liver Stage Plasmodium berghei sporozoite Luciferase assay IC50 (uM); assay type: functional, organism-based
Plasmodium falciparum [6] = assay: Antimalarial activity: Gametocytes Plasmodium falciparum NF54 Gametocytes Stage V: inhibition at 10 uM (%); assay type: functional
HepG2 [7] = assay: Cytotoxicity data HepG2 CC20 (uM); assay type: functional
HepG2 [8] = assay: HepG2 CC50 (uM) Cytotoxicity; assay type: functional; conditions: Homo sapiens

Nc1nccc2ccc(Oc3ccncc3)cc12
IC50 (Plasmodium falciparum [1]): 0.23 µM
IC50 (Plasmodium falciparum [2]): 0.74 µM
IC50 (Plasmodium falciparum [3]): 0.42 µM
Inhibition (Plasmodium berghei [4]): 52%
IC50 (Plasmodium berghei [5]): > 10 µM
Inhibition (Plasmodium falciparum [6]): 43%
CC20 (HepG2 [7]): >80 µM
CC50 (HepG2 [8]): > 10 µM

O=C(NC1CC1)c1ccc(N2CCC(Cc3ccccc3)CC2)nc1
IC50 (Plasmodium falciparum [1]): 1.33 µM
IC50 (Plasmodium falciparum [2]): 1.67 µM
IC50 (Plasmodium falciparum [3]): 0.82 µM
Inhibition (Plasmodium berghei [4]): 100%
IC50 (Plasmodium berghei [5]): 1.41 µM
Inhibition (Plasmodium falciparum [6]): 28%
CC20 (HepG2 [7]): >80 µM
CC50 (HepG2 [8]): > 10 µM

Cc1c[nH]c(CCNC(=O)c2cc(-c3ccc(Cl)cc3)cs2)n1
IC50 (Plasmodium falciparum [1]): 0.81 µM
IC50 (Plasmodium falciparum [2]): 2.02 µM
IC50 (Plasmodium falciparum [3]): 2.86 µM
Inhibition (Plasmodium berghei [4]): 85%
IC50 (Plasmodium berghei [5]): 8.57 µM
Inhibition (Plasmodium falciparum [6]): 15%
CC20 (HepG2 [7]): 6.9 µM
CC50 (HepG2 [8]): > 10 µM

Clc1cccc(C(c2ccc(CN3CCNCC3)cc2)n2ccnc2)c1 (stereo not drawn)
IC50 (Plasmodium falciparum [1]): 1.63 µM
IC50 (Plasmodium falciparum [2]): 1.53 µM
IC50 (Plasmodium falciparum [3]): 1.36 µM
Inhibition (Plasmodium berghei [4]): 83%
IC50 (Plasmodium berghei [5]): > 10 µM
Inhibition (Plasmodium falciparum [6]): 36%
CC20 (HepG2 [7]): 15.2 µM
CC50 (HepG2 [8]): > 10 µM

COc1cccc(-c2cc3c(Nc4cccnc4)nccc3[nH]2)c1
IC50 (Plasmodium falciparum [1]): 1.28 µM
IC50 (Plasmodium falciparum [2]): 2.49 µM
IC50 (Plasmodium falciparum [3]): 2.53 µM
Inhibition (Plasmodium berghei [4]): 77%
IC50 (Plasmodium berghei [5]): > 10 µM
Inhibition (Plasmodium falciparum [6]): 6%
CC20 (HepG2 [7]): 2.29 µM
CC50 (HepG2 [8]): > 10 µM

CC(C)C(NC(=O)Cc1cccc2ccccc12)C(=O)Nc1cccc(C#N)c1 (stereo not drawn)
IC50 (Plasmodium falciparum [1]): 0.96 µM
IC50 (Plasmodium falciparum [2]): 3.1 µM
IC50 (Plasmodium falciparum [3]): 1.14 µM
Inhibition (Plasmodium berghei [4]): 76%
IC50 (Plasmodium berghei [5]): 9.15 µM
Inhibition (Plasmodium falciparum [6]): 5%
CC20 (HepG2 [7]): 14 µM
CC50 (HepG2 [8]): > 10 µM

Cc1cc(C(=O)Nc2ccc(-c3ccccc3)cc2)no1
IC50 (Plasmodium falciparum [1]): 0.82 µM
IC50 (Plasmodium falciparum [2]): 1.41 µM
IC50 (Plasmodium falciparum [3]): 0.54 µM
Inhibition (Plasmodium berghei [4]): 97%
IC50 (Plasmodium berghei [5]): > 10 µM
Inhibition (Plasmodium falciparum [6]): 24%
CC20 (HepG2 [7]): >80 µM
CC50 (HepG2 [8]): > 10 µM

FC(F)(F)c1cccc(-c2nc3c(NCc4ccncc4)nccc3[nH]2)c1
IC50 (Plasmodium falciparum [1]): 0.51 µM
IC50 (Plasmodium falciparum [2]): 0.78 µM
IC50 (Plasmodium falciparum [3]): 1.04 µM
Inhibition (Plasmodium berghei [4]): 62%
IC50 (Plasmodium berghei [5]): > 10 µM
Inhibition (Plasmodium falciparum [6]): 11%
CC20 (HepG2 [7]): 14.6 µM
CC50 (HepG2 [8]): > 10 µM

O=C(Nc1cccc(Cl)c1)c1cnc(N2CCN(c3ccncc3)CC2)c(Cl)c1
IC50 (Plasmodium falciparum [1]): 0.83 µM
IC50 (Plasmodium falciparum [2]): 1.33 µM
IC50 (Plasmodium falciparum [3]): 1.55 µM
Inhibition (Plasmodium berghei [4]): 99%
IC50 (Plasmodium berghei [5]): 2.35 µM
Inhibition (Plasmodium falciparum [6]): 51%
CC20 (HepG2 [7]): 2.68 µM
CC50 (HepG2 [8]): > 10 µM

O=C1Nc2ccc(Br)cc2C12NCCc1c2[nH]c2ccccc12 (stereo not drawn)
IC50 (Plasmodium falciparum [1]): 0.51 µM
IC50 (Plasmodium falciparum [2]): 0.41 µM
IC50 (Plasmodium falciparum [3]): 0.62 µM
Inhibition (Plasmodium berghei [4]): 57%
IC50 (Plasmodium berghei [5]): > 10 µM
Inhibition (Plasmodium falciparum [6]): 38%
CC20 (HepG2 [7]): 19.9 µM
CC50 (HepG2 [8]): > 10 µM

CC1CC1C(=O)NC1CCN(CC2(c3ccccc3)CCCCC2)CC1 (stereo not drawn)
IC50 (Plasmodium falciparum [1]): 0.58 µM
IC50 (Plasmodium falciparum [2]): 0.92 µM
IC50 (Plasmodium falciparum [3]): 0.31 µM
Inhibition (Plasmodium berghei [4]): 100%
IC50 (Plasmodium berghei [5]): 2.25 µM
Inhibition (Plasmodium falciparum [6]): 24%
CC20 (HepG2 [7]): >80 µM
CC50 (HepG2 [8]): > 10 µM

NCC(=O)N1CCn2c(nc(-c3ccccc3)c2Nc2ccc3c(c2)OCO3)C1
IC50 (Plasmodium falciparum [1]): 0.64 µM
IC50 (Plasmodium falciparum [2]): 0.89 µM
IC50 (Plasmodium falciparum [3]): 0.54 µM
Inhibition (Plasmodium berghei [4]): 100%
IC50 (Plasmodium berghei [5]): 3.78 µM
Inhibition (Plasmodium falciparum [6]): 56%
CC20 (HepG2 [7]): >80 µM
CC50 (HepG2 [8]): > 10 µM

CN(C)CCNC(=O)N1CCCN(c2ncnc3cc(-c4ccccc4)sc23)CC1
IC50 (Plasmodium falciparum [1]): 1.58 µM
IC50 (Plasmodium falciparum [2]): 2.91 µM
IC50 (Plasmodium falciparum [3]): 3.85 µM
Inhibition (Plasmodium berghei [4]): 73%
IC50 (Plasmodium berghei [5]): 1.97 µM
Inhibition (Plasmodium falciparum [6]): 5%
CC20 (HepG2 [7]): 6.21 µM
CC50 (HepG2 [8]): > 10 µM

Cc1ccc(S(=O)(=O)n2cc(-c3ccnc(N)c3)c3cc(Br)cnc32)cc1
IC50 (Plasmodium falciparum [1]): 0.63 µM
IC50 (Plasmodium falciparum [2]): 1.47 µM
IC50 (Plasmodium falciparum [3]): 1.3 µM
Inhibition (Plasmodium berghei [4]): 99%
IC50 (Plasmodium berghei [5]): > 6 µM
Inhibition (Plasmodium falciparum [6]): 17%
CC20 (HepG2 [7]): 5.28 µM
CC50 (HepG2 [8]): > 6 µM

O=C(NC1CCN(c2ccnc3ccccc23)C1)c1cccc(C(F)(F)F)c1 (stereo not drawn)
IC50 (Plasmodium falciparum [1]): 0.71 µM
IC50 (Plasmodium falciparum [2]): 0.78 µM
IC50 (Plasmodium falciparum [3]): 2.06 µM
Inhibition (Plasmodium berghei [4]): 99%
IC50 (Plasmodium berghei [5]): 6.54 µM
Inhibition (Plasmodium falciparum [6]): 1%
CC20 (HepG2 [7]): 5.82 µM
CC50 (HepG2 [8]): > 10 µM

Cc1nc(-c2cccc(NCc3ccccc3)c2)[nH]c1C
IC50 (Plasmodium falciparum [1]): 1.94 µM
IC50 (Plasmodium falciparum [2]): 5.03 µM
IC50 (Plasmodium falciparum [3]): 2.59 µM
Inhibition (Plasmodium berghei [4]): 100%
IC50 (Plasmodium berghei [5]): 4.59 µM
Inhibition (Plasmodium falciparum [6]): 16%
CC20 (HepG2 [7]): 27.7 µM
CC50 (HepG2 [8]): > 10 µM

CCOc1ccccc1NC(C)C(=O)Nc1cc(C(F)(F)F)ccc1N1CCOCC1 (stereo not drawn)
IC50 (Plasmodium falciparum [1]): 0.42 µM
IC50 (Plasmodium falciparum [2]): 0.61 µM
IC50 (Plasmodium falciparum [3]): 0.79 µM
Inhibition (Plasmodium berghei [4]): 56%
IC50 (Plasmodium berghei [5]): > 10 µM
Inhibition (Plasmodium falciparum [6]): 39%
CC20 (HepG2 [7]): 29.8 µM
CC50 (HepG2 [8]): > 10 µM

Cc1cc(C)n2nc(C(=O)Nc3cc(C(F)(F)F)ccc3N3CCOCC3)nc2n1
IC50 (Plasmodium falciparum [1]): 0.22 µM
IC50 (Plasmodium falciparum [2]): 0.22 µM
IC50 (Plasmodium falciparum [3]): 0.07 µM
Inhibition (Plasmodium berghei [4]): 88%
IC50 (Plasmodium berghei [5]): 1.21 µM
Inhibition (Plasmodium falciparum [6]): 4%
CC20 (HepG2 [7]): >80 µM
CC50 (HepG2 [8]): > 10 µM

CN1CCN(c2nccc3nc(-c4ccc(F)c(F)c4)[nH]c23)CC1
IC50 (Plasmodium falciparum [1]): 1.13 µM
IC50 (Plasmodium falciparum [2]): 1.71 µM
IC50 (Plasmodium falciparum [3]): 2.11 µM
Inhibition (Plasmodium berghei [4]): 56%
IC50 (Plasmodium berghei [5]): > 10 µM
Inhibition (Plasmodium falciparum [6]): 32%
CC20 (HepG2 [7]): 10.3 µM
CC50 (HepG2 [8]): > 10 µM

CCOc1ccc(-c2nc(NC(=O)CS(=O)(=O)c3ccccc3)sc2C)cc1
IC50 (Plasmodium falciparum [1]): 0.66 µM
IC50 (Plasmodium falciparum [2]): 1.8 µM
IC50 (Plasmodium falciparum [3]): 1.97 µM
Inhibition (Plasmodium berghei [4]): 59%
IC50 (Plasmodium berghei [5]): > 10 µM
Inhibition (Plasmodium falciparum [6]): 17%
CC20 (HepG2 [7]): 20 µM
CC50 (HepG2 [8]): > 10 µM

Cc1ccc(S(=O)(=O)N2CCN(C(=O)c3cc(-c4ccccc4)n[nH]3)CC2)cc1
IC50 (Plasmodium falciparum [1]): 1.04 µM
IC50 (Plasmodium falciparum [2]): 1.73 µM
IC50 (Plasmodium falciparum [3]): 0.4 µM
Inhibition (Plasmodium berghei [4]): 92%
IC50 (Plasmodium berghei [5]): 0.63 µM
Inhibition (Plasmodium falciparum [6]): 17%
CC20 (HepG2 [7]): >80 µM
CC50 (HepG2 [8]): > 10 µM

CNC(=O)C1Cc2c([nH]c3cc(Cl)ccc23)C2(CCN(CCc3ccccc3)CC2)N1 (stereo not drawn)
IC50 (Plasmodium falciparum [1]): 0.86 µM
IC50 (Plasmodium falciparum [2]): 1.95 µM
IC50 (Plasmodium falciparum [3]): 4.55 µM
Inhibition (Plasmodium berghei [4]): 99%
IC50 (Plasmodium berghei [5]): 4.51 µM
Inhibition (Plasmodium falciparum [6]): 33%
CC20 (HepG2 [7]): 10 µM
CC50 (HepG2 [8]): > 10 µM

Cc1ccc(NC(=O)c2cc(S(=O)(=O)NC(C)(C)C)ccc2C)nc1
IC50 (Plasmodium falciparum [1]): 0.93 µM
IC50 (Plasmodium falciparum [2]): 2.51 µM
IC50 (Plasmodium falciparum [3]): 1.18 µM
Inhibition (Plasmodium berghei [4]): 82%
IC50 (Plasmodium berghei [5]): 7.35 µM
Inhibition (Plasmodium falciparum [6]): 2%
CC20 (HepG2 [7]): >80 µM
CC50 (HepG2 [8]): > 7.5 µM

OCCc1ccc(Nc2nccc(-c3nnc4ccccn34)n2)cc1
IC50 (Plasmodium falciparum [1]): 1.08 µM
IC50 (Plasmodium falciparum [2]): 1.63 µM
IC50 (Plasmodium falciparum [3]): 0.69 µM
Inhibition (Plasmodium berghei [4]): 99%
IC50 (Plasmodium berghei [5]): 1.47 µM
Inhibition (Plasmodium falciparum [6]): 11%
CC20 (HepG2 [7]): 1.67 µM
CC50 (HepG2 [8]): 8.1 µM

Cc1nnc(NC(=O)c2cn(-c3ccccc3)nc2-c2ccccc2C)o1
IC50 (Plasmodium falciparum [1]): 0.71 µM
IC50 (Plasmodium falciparum [2]): 1.5 µM
IC50 (Plasmodium falciparum [3]): 0.68 µM
Inhibition (Plasmodium berghei [4]): 100%
IC50 (Plasmodium berghei [5]): 0.17 µM
Inhibition (Plasmodium falciparum [6]): 16%
CC20 (HepG2 [7]): 0.92 µM
CC50 (HepG2 [8]): > 10 µM

Cc1cccc(C(=O)Nc2ccnc(N(C)C3CCN(CC(C)C)CC3)c2)c1
IC50 (Plasmodium falciparum [1]): 2.1 µM
IC50 (Plasmodium falciparum [2]): 5.18 µM
IC50 (Plasmodium falciparum [3]): 9.25 µM
Inhibition (Plasmodium berghei [4]): 66%
IC50 (Plasmodium berghei [5]): > 10 µM
Inhibition (Plasmodium falciparum [6]): 10%
CC20 (HepG2 [7]): 13.7 µM
CC50 (HepG2 [8]): > 10 µM
